{
  "source": "paper PMC9027532",
  "about": "“Preclinical Pharmacokinetic Studies of a Novel Diuretic Inhibiting Urea Transporters” (Molecules, 2022)",
  "experiment": "Pharmacokinetic study in rats (plasma, LC-MS/MS, NCA)",
  "conditions": "for concentration at 6 h / concentration at 8 h / concentration at 12 h / concentration at 24 h / concentration at 0.083 h / concentration at 0.167 h / concentration at 0.25 h / concentration at 0.5 h / concentration at 1 h / concentration at 2 h / concentration at 4 h: Mean plasma concentration",
  "key": {"[1]": {"conditions": "male, Sprague-Dawley, rat, plasma, po, 25 mg/kg, rats, single p.o. 25 mg/kg"}, "[2]": {"conditions": "male, Sprague-Dawley, rat, plasma, po, 50 mg/kg"}, "[3]": {"conditions": "male, Sprague-Dawley, rat, plasma, po, 50 mg/kg, rats, single p.o. 50 mg/kg"}, "[4]": {"conditions": "male, Sprague-Dawley, rat, plasma, po, 100 mg/kg"}, "[5]": {"conditions": "male, Sprague-Dawley, rat, plasma, po, 100 mg/kg, rats, multiple p.o. 100 mg/kg, twice per day for 7 days"}, "[6]": {"conditions": "male, Sprague-Dawley, rat, plasma, po, 100 mg/kg, rats, single p.o. 100 mg/kg"}, "[7]": {"conditions": "male, Sprague-Dawley, rat, plasma, po, 100 mg/kg, rats, multiple p.o. 100 mg/kg"}},
  "note": "“Also recorded” adds a separate entry of the source.",
  "data": [
    {"molecule": "CC(=O)Nc1ccc(NC(=O)c2ccc(C(C)=O)o2)cc1", "note": "[Compound 25a, N-(4-acetamidophenyl)-5-acetylfuran-2-carboxamide]", "values": [
      {"measurement": "concentration at 6 h", "setting": "[1]", "value": "230 ± 49.7", "unit": "ng/mL"},
      {"measurement": "concentration at 8 h", "setting": "[1]", "value": "102 ± 7.7", "unit": "ng/mL"},
      {"measurement": "concentration at 12 h", "setting": "[1]", "value": "36.8 ± 2.7", "unit": "ng/mL"},
      {"measurement": "concentration at 24 h", "setting": "[1]", "value": "2.1 ± 1.3", "unit": "ng/mL"},
      {"measurement": "half-life", "setting": "male, Sprague-Dawley, rat, plasma, po, 25 mg/kg, t1/2, rats, single p.o. 25 mg/kg", "value": "2.86 ± 0.29", "unit": "h"},
      {"measurement": "Tmax", "setting": "male, Sprague-Dawley, rat, plasma, po, 25 mg/kg, tmax, rats, single p.o. 25 mg/kg", "value": 0.25, "unit": "h"},
      {"measurement": "AUC(0-inf)", "setting": "[2]", "value": "4740 ± 854", "unit": "ng·h/mL"},
      {"measurement": "AUC(0-t)", "setting": "[2]", "value": "4730 ± 854", "unit": "ng·h/mL"},
      {"measurement": "CL/F", "setting": "[3]", "value": 175, "unit": "mL/min/kg"},
      {"measurement": "Cmax", "setting": "[3]", "value": "693 ± 260", "unit": "ng/mL"},
      {"measurement": "bioavailability", "setting": "male, Sprague-Dawley, rat, plasma, po, 50 mg/kg, F (oral bioavailability), rats, single p.o. 50 mg/kg", "value": "18.9 ± 1.7", "unit": "%"},
      {"measurement": "concentration at 0.083 h", "setting": "[3]", "value": "236 ± 93.5", "unit": "ng/mL"},
      {"measurement": "concentration at 0.167 h", "setting": "[3]", "value": "380 ± 173", "unit": "ng/mL"},
      {"measurement": "concentration at 0.25 h", "setting": "[3]", "value": "496 ± 211", "unit": "ng/mL"},
      {"measurement": "concentration at 0.5 h", "setting": "[3]", "value": "693 ± 272", "unit": "ng/mL"},
      {"measurement": "concentration at 1 h", "setting": "[3]", "value": "429 ± 149", "unit": "ng/mL"},
      {"measurement": "concentration at 2 h", "setting": "[3]", "value": "454 ± 97.6", "unit": "ng/mL"},
      {"measurement": "concentration at 4 h", "setting": "[3]", "value": "553 ± 97.8", "unit": "ng/mL"},
      {"measurement": "concentration at 6 h", "setting": "[3]", "value": "383 ± 166", "unit": "ng/mL"},
      {"measurement": "concentration at 8 h", "setting": "[3]", "value": "271 ± 75.1", "unit": "ng/mL"},
      {"measurement": "concentration at 12 h", "setting": "[3]", "value": "78.3 ± 36.1", "unit": "ng/mL"},
      {"measurement": "concentration at 24 h", "setting": "[3]", "value": "3.6 ± 1.1", "unit": "ng/mL"},
      {"measurement": "half-life", "setting": "male, Sprague-Dawley, rat, plasma, po, 50 mg/kg, t1/2, rats, single p.o. 50 mg/kg", "value": "2.63 ± 0.2", "unit": "h"},
      {"measurement": "Tmax", "setting": "male, Sprague-Dawley, rat, plasma, po, 50 mg/kg, tmax, rats, single p.o. 50 mg/kg", "value": 0.5, "unit": "h"},
      {"measurement": "AUC(0-inf)", "setting": "[4]", "value": 12100, "unit": "ng·h/mL"},
      {"measurement": "AUC(0-t)", "setting": "[4]", "value": 11800, "unit": "ng·h/mL"},
      {"measurement": "CL/F", "setting": "[5]", "value": 137, "unit": "mL/min/kg"},
      {"measurement": "CL/F", "setting": "[6]", "value": 240, "unit": "mL/min/kg"},
      {"measurement": "Cmax", "setting": "[5]", "value": "1710 ± 185", "unit": "ng/mL"},
      {"measurement": "Cmax", "setting": "[6]", "value": "1320 ± 228", "unit": "ng/mL"},
      {"measurement": "bioavailability", "setting": "male, Sprague-Dawley, rat, plasma, po, 100 mg/kg, F (oral bioavailability), rats, multiple p.o. 100 mg/kg, twice per day for 7 days", "value": "23.5 ± 2.3", "unit": "%"},
      {"measurement": "bioavailability", "setting": "male, Sprague-Dawley, rat, plasma, po, 100 mg/kg, F (oral bioavailability), rats, single p.o. 100 mg/kg", "value": "13.8 ± 0.8", "unit": "%"},
      {"measurement": "MRT", "setting": "[5]", "value": "6.5 ± 0.6", "unit": "h"},
      {"measurement": "MRT", "setting": "[6]", "value": "5.3 ± 0.3", "unit": "h"},
      {"measurement": "concentration at 0.083 h", "setting": "[7]", "value": "681 ± 97", "unit": "ng/mL"},
      {"measurement": "concentration at 0.083 h", "setting": "[6]", "value": "1080 ± 287", "unit": "ng/mL"},
      {"measurement": "concentration at 0.167 h", "setting": "[7]", "value": "936 ± 102", "unit": "ng/mL"},
      {"measurement": "concentration at 0.167 h", "setting": "[6]", "value": "1320 ± 235", "unit": "ng/mL"},
      {"measurement": "concentration at 0.25 h", "setting": "[7]", "value": "1090 ± 192", "unit": "ng/mL"},
      {"measurement": "concentration at 0.25 h", "setting": "[6]", "value": "1210 ± 196", "unit": "ng/mL"},
      {"measurement": "concentration at 0.5 h", "setting": "[7]", "value": "1260 ± 168", "unit": "ng/mL"},
      {"measurement": "concentration at 0.5 h", "setting": "[6]", "value": "1030 ± 124", "unit": "ng/mL"},
      {"measurement": "concentration at 1 h", "setting": "[7]", "value": "1410 ± 283", "unit": "ng/mL"},
      {"measurement": "concentration at 1 h", "setting": "[6]", "value": "734 ± 134", "unit": "ng/mL"},
      {"measurement": "concentration at 2 h", "setting": "[7]", "value": "1710 ± 185", "unit": "ng/mL"},
      {"measurement": "concentration at 2 h", "setting": "[6]", "value": "687 ± 146", "unit": "ng/mL"},
      {"measurement": "concentration at 4 h", "setting": "[7]", "value": "1080 ± 110", "unit": "ng/mL"},
      {"measurement": "concentration at 4 h", "setting": "[6]", "value": "1130 ± 245", "unit": "ng/mL"},
      {"measurement": "concentration at 6 h", "setting": "[7]", "value": "717 ± 196", "unit": "ng/mL"},
      {"measurement": "concentration at 6 h", "setting": "[6]", "value": "835 ± 178", "unit": "ng/mL"},
      {"measurement": "concentration at 8 h", "setting": "[7]", "value": "494 ± 111", "unit": "ng/mL"},
      {"measurement": "concentration at 8 h", "setting": "[6]", "value": "596 ± 126", "unit": "ng/mL"},
      {"measurement": "concentration at 12 h", "setting": "[7]", "value": "245 ± 73.6", "unit": "ng/mL"},
      {"measurement": "concentration at 12 h", "setting": "[6]", "value": "173 ± 36.7", "unit": "ng/mL"},
      {"measurement": "concentration at 24 h", "setting": "[7]", "value": "28.1 ± 85.9", "unit": "ng/mL"},
      {"measurement": "concentration at 24 h", "setting": "[6]", "value": "10.9 ± 6.6", "unit": "ng/mL"},
      {"measurement": "half-life", "setting": "male, Sprague-Dawley, rat, plasma, po, 100 mg/kg, half-life, rats, single oral doses 25, 50, 100 mg/kg", "value": "2.6 to 3", "unit": "h"},
      {"measurement": "half-life", "setting": "male, Sprague-Dawley, rat, plasma, po, 100 mg/kg, t1/2, rats, multiple p.o. 100 mg/kg, twice per day for 7 days", "value": "5.03 ± 0.82", "unit": "h"},
      {"measurement": "Tmax at 7 days", "setting": "male, Sprague-Dawley, rat, plasma, po, 100 mg/kg, tmax, rats, multiple p.o. 100 mg/kg, twice per day for 7 days", "value": "~2", "unit": "h"},
      {"measurement": "Tmax", "setting": "male, Sprague-Dawley, rat, plasma, po, 100 mg/kg, tmax, rats, single p.o. 100 mg/kg", "value": "~0.17", "unit": "h"},
      {"measurement": "bioavailability", "setting": "male, Sprague-Dawley, rat, plasma, po, oral bioavailability, SD rats, oral administration, overall", "value": "≤ 20", "unit": "%"},
      {"measurement": "time of second plasma peak concentration", "setting": "rats, after intravenous injection", "value": "Approximately 2 h"},
      {"measurement": "time to reach maximum plasma concentration (Cmax)", "setting": "rats, after oral administration", "value": "≤ 0.5", "unit": "h"},
      {"measurement": "time of second plasma peak concentration", "setting": "rats, after oral dosing", "value": "~4", "unit": "h"},
      {"measurement": "V/F", "setting": "rats, multiple p.o. 100 mg/kg, twice per day for 7 days", "value": "59.8 ± 11.8", "unit": "L/kg"},
      {"measurement": "bioavailability of 25a relative to lead compound 1H", "setting": "rats, oral", "value": "approximately fourfold; also recorded: approximately four times higher"},
      {"measurement": "V (V/F row)", "setting": "rats, single i.v. 1 mg/kg", "value": "2.6 ± 1.4", "unit": "L/kg"},
      {"measurement": "V/F", "setting": "rats, single p.o. 25 mg/kg", "value": "40.9 ± 7.4", "unit": "L/kg"},
      {"measurement": "V/F", "setting": "rats, single p.o. 50 mg/kg", "value": "40.1 ± 10.8", "unit": "L/kg"},
      {"measurement": "AUC0–∞", "setting": "rats, single p.o. 100 mg/kg", "value": "6957.4 ± 345.1", "unit": "ng·h/mL"},
      {"measurement": "V/F", "setting": "rats, single p.o. 100 mg/kg", "value": "63.0 ± 17.6", "unit": "L/kg"},
      {"measurement": "t1/2", "setting": "rats, single p.o. 100 mg/kg", "value": "3.04 ± 0.70", "unit": "h"},
      {"measurement": "clearance", "setting": "read-out: CL (CL/F row), rats, single i.v. 1 mg/kg", "value": 35, "unit": "mL/min/kg"}
    ]}
  ]
}
